# Assay results taken from patent publication US10640463B2, “Chlorhexidine crystal forms and uses thereof in medicine” (Queen Mary University of London, priority 2016, dated 2020).
# Where “and” joins values, the source holds several entries; their conditions need not be identical. Equal values may be shown once.
# How the values were obtained:
# [1] = Thermo-gravimetric analysis (TGA); type: physicochemical; conditions: TGA at 10° C./min in nitrogen, 50-800° C.
# Experimental: The chlorhexidine chloride spheres (0.33M CaCl2 group) were analysed by Thermo-gravimetric analysis (TGA Q50, USA). Chlorhexidine diacetate crystals and CaCl2 powder (Sigma-Aldrich, C8106, Lot: SLBF7416V) were tested as comparisons. TGA was carried out at 10° C./min in a nitrogen atmosphere, over a temperature range of 50-800° C. The chlorhexidine proportion was further confirmed by the TGA result. […] The decomposition temperature of the chlorhexidine chloride spheres (210° C.) was higher than the chlorhexidine diacetate crystals (120° C.).
# L929 cells [2] = test: Cell proliferation assay (total DNA content, Hoechst 33258); type: cell-based, mouse
# Experimental: To determine any increase in cell numbers over time following chlorhexidine spheres treatment, a cell proliferation assay was performed by analysing the total DNA content using a fluorimetric plate reader based assay (Hoechst dye, R. Rago analytical biochemistry, 1990, 191: 31-34). Briefly, the 96 well plates were collected at 24 and 48 hour time points, washed twice with PBS and stored at −20° C. The cells were thawed to room temperature and 100 μl distilled water was added to each well, incubated for another hour and refrozen to suspend DNA. After 24 hrs, cells were thawed again and 100 μl of the fluorochrome Hoechst 33258 (Sigma-Aldrich, UK) at the concentration 20 μg/ml in THE buffer (2M NaCl) was added to each well. The intensity of the fluorescence was then read at A 350 nm excitation and A 460 nm emissions.
# [3] = Chlorhexidine release from uncoated and polyelectrolyte-encapsulated particles (UV absorption); type: physicochemical; conditions: H2O, water stored and agitated
# Experimental: The content of chlorhexidine in the compound, made from 0.33M CaCl2 and 15 mg/ml chlorhexidine diacetate, was determined by UV-Vis absorption (Lambda 35, Perkin Elmer, USA). […] The chlorohexidine proportion in the spheres (0.33M CaCl2 group) was calculated to be 90%-99.9% when they were co-precipitated from 15 mg/ml chlorhexidine diacetate solution. […] However, after encapsulation polyelectrolyte flakes could be seen on the surface, with the original structure covered (FIG. 11, panel (b)). In order to measure chlorhexidine release over 400 mins, samples were water stored and agitated (Vortex-Genie 2, Germany) for the whole time period. […] There was a linear relationship between chlorhexidine release and time (r2=0.99) FIG. 11, panel (d)).
# L929 cells [4] = test: Cytotoxicity assay (MTT); conditions: for relative cellular viability: 0.001% chlorhexidine spheres
# [5] = test system: Porphyromonas gingivalis (strain-W50); test: MIC and MBC of chlorhexidine spheres; type: cell-based; set-up: key to MIC/MBC class at this concentration: The MIC was defined as the lowest concentration of chlorhexidine spheres that inhibited the growth of microorganism at each time point; The MBC was the lowest concentration of chlorhexidine spheres giving no observable bacterial growth
# Experimental: (§1) The effectiveness of the chlorhexidine spheres against a panel of periodontal pathogens was evaluated by measurements of the growth (optical density) of bacterial cultures. Porphyromonas gingivalis (strain-W50), Fusobacterium nucleatum sub species polymorphum (strain-NCTC10562) and Aggregatibacter actinomycetemcomitans (strain-Y4) were grown on blood agar plates and in brain heart infusion (BHI) broth in an anaerobic environment with an atmosphere of 5% H2, 10% CO2, and 85% N2 at 37° C. for 2 days. BHI broth was pre-reduced with 5 μg/ml hemin and 5 μg/ml menadione bisulphite added. Bacterial numbers in the BHI cultures were determined and standardised by serial dilution and enumeration of colony forming units (CFUs) on agar plates. After overnight incubation, the bacterial suspensions were diluted 1:20 with fresh BHI medium to achieve an optical density of 0.1 for P. gingivalis and A. actinomycetemcomitans and 0.2 for F. nucleatum sub sp. polymorphum at 595 nm (OD595) to give approximately 6.5×10^7 colony-forming units (CFU) per ml.
# (§2) Negative control (bacterial inoculum only but no chlorhexidine spheres) and blank (medium only) wells were also included. The microtiter plates were incubated for 0, 24 and 48 hours in anaerobic conditions as above and the optical density (OD) was determined at 595 nm to quantify bacterial growth. The MIC was defined as the lowest concentration of chlorhexidine spheres that inhibited the growth of microorganism at each time point. The MBC was the lowest concentration of chlorhexidine spheres giving no observable bacterial growth. MBC was determined following transfer of the microtiter well contents to micro centrifuge tubes, centrifuging to pellet the bacterial cells, washing to remove any remaining chlorhexidine spheres and incubation on blood agar plates. After incubation anaerobically growth of bacteria that had survived the treatment was recorded.
# [6] = test system: Fusobacterium nucleatum sub species polymorphum (strain-NCTC10562); test: MIC and MBC of chlorhexidine spheres; type: cell-based; set-up: key to MIC/MBC class at this concentration: The MIC was defined as the lowest concentration of chlorhexidine spheres that inhibited the growth of microorganism at each time point; The MBC was the lowest concentration of chlorhexidine spheres giving no observable bacterial growth; conditions: for MBC: F. nucleatum sub sp. polymorphum; for MIC: planktonic F. nucleatum sub sp. polymorphum
# Experimental: as §1, §2
# [7] = test system: Aggregatibacter actinomycetemcomitans (strain-Y4); test: MIC and MBC of chlorhexidine spheres; type: cell-based; set-up: key to MIC/MBC class at this concentration: The MIC was defined as the lowest concentration of chlorhexidine spheres that inhibited the growth of microorganism at each time point; The MBC was the lowest concentration of chlorhexidine spheres giving no observable bacterial growth; conditions: for MIC: planktonic A. actinomycetemcomitans
# Experimental: as §1, §2
# [8] = 0.00025% chlorhexidine spheres, 24 hours
# [9] = 0.00025% chlorhexidine spheres, 48 hours
# [10] = 0.0005% chlorhexidine spheres, 24 hours
# [11] = 0.0005% chlorhexidine spheres, 48 hours
# [12] = 0.001% chlorhexidine spheres, 24 hours
# [13] = 0.001% chlorhexidine spheres, 48 hours
# [14] = 0.002% chlorhexidine spheres, 24 hours
# [15] = 0.002% chlorhexidine spheres, 48 hours
# [16] = planktonic P. gingivalis, 48 hours
compound,measurement,setting,value
Cl.Cl.N=C(NCCCCCCNC(=N)NC(=N)Nc1ccc(Cl)cc1)NC(=N)Nc1ccc(Cl)cc1 [chlorhexidine spheres],decomposition temperature,[1],210 °C
same,effect on L929 cell proliferation (in words),"L929 cells [2]; 0.00005% to 0.00025%, 24 and 48 hour treatment",induces proliferation
same,effect on L929 cell proliferation (in words),"L929 cells [2]; 0.0005%, 24 hour treatment",no proliferation
same,concentrations profoundly reducing cell proliferation,L929 cells [2]; L929 cells,> 0.0005%
same,concentrations significantly inhibiting proliferation,L929 cells [2]; L929 cells,≥ 0.001%
same,time to dissolution,[3],≤ 1 h
same,cellular viability,"L929 cells [4]; 0.00005% to 0.00025%, both 24 and 48 hours",approximately 90%
same,cellular viability,"L929 cells [4]; 0.0005%, 24 hours",> 80%
same,cellular viability,"L929 cells [4]; 0.0005%, 48 hours",below 70%
same,relative cellular viability,L929 cells [4]; 24 hours,approximately 50%
same,relative cellular viability,L929 cells [4]; 48 hours,20%
same,concentrations demonstrating cytotoxicity,"L929 cells [4]; L929 cells, viability below 70% of control regarded as toxic",above 0.0005%
same,MIC/MBC class at this concentration,[5]; [8],MIC
same,MIC/MBC class at this concentration,[5]; [9],MBC
same,MIC/MBC class at this concentration,[5]; [10],MBC
same,MIC/MBC class at this concentration,[5]; [11],MBC
same,MIC/MBC class at this concentration,[5]; [12],MBC
same,MIC/MBC class at this concentration,[5]; [13],MBC
same,MIC/MBC class at this concentration,[5]; [14],MBC
same,MIC/MBC class at this concentration,[5]; [15],MBC
same,concentrations with antimicrobial effect,[5]; P. gingivalis,≥ 0.00025%
same,MBC,"[5]; P. gingivalis, 24 hours",0.0005%
same,MIC,"[5]; planktonic P. gingivalis, 24 hours",0.00025%
same,MBC,[5]; [16],0.00025%
same,MIC,[5]; [16],0.00025%
same,MIC/MBC class at this concentration,[6]; [10],No Inhibition
same,MIC/MBC class at this concentration,[6]; [11],No Inhibition
same,MIC/MBC class at this concentration,[6]; [12],MBC
same,MIC/MBC class at this concentration,[6]; [13],MBC
same,MIC/MBC class at this concentration,[6]; [14],MBC
same,MIC/MBC class at this concentration,[6]; [15],MBC
same,MIC/MBC class at this concentration,"[6]; 0.004% chlorhexidine spheres, 24 hours",MBC
same,MIC/MBC class at this concentration,"[6]; 0.004% chlorhexidine spheres, 48 hours",MBC
same,MBC,[6]; 24 hours,0.001%
same,MBC,[6]; 48 hours,0.001%
same,threshold for inhibition (MIC),"[6]; F. nucleatum, time not stated",0.001%
same,MIC,[6]; 24 hours,0.0005% and 0.001%
same,MIC,[6]; 48 hours,0.001%
same,MIC/MBC class at this concentration,[7]; [8],MBC
same,MIC/MBC class at this concentration,[7]; [9],MBC
same,MIC/MBC class at this concentration,[7]; [10],MBC
same,MIC/MBC class at this concentration,[7]; [11],MBC
same,MIC/MBC class at this concentration,[7]; [12],MBC
same,MIC/MBC class at this concentration,[7]; [13],MBC
same,concentrations with antimicrobial effect,[7]; A. actinomycetemcomitans,≥ 0.00025%
same,MBC,"[7]; A. actinomycetemcomitans, 24 and 48 hour cultures",0.00025%
same,MIC,[7]; 24 hours,0.00025%
same,MIC,[7]; 48 hours,0.00025%
